Tests used:
Meloidogyne incognita [1] = assay: Example A: Meloidogyne incognita test (gall formation on lettuce roots in sand); format: in vivo; details: nematicidal action by gall formation, 100% = no galls
Description: (§1) • The expected activity for a given combination of two active ingredients can be calculated as follows, according to S. R. Colby (“Calculating Synergistic and Antagonistic Responses of Herbicide Combinations”, Weeds 15, 20-22, 1967): • If • X is the kill rate, expressed as % of the untreated control, when using active ingredient A at an application rate of m g/ha or in a concentration of m ppm, • Y is the kill rate, expressed as % of the untreated control, when using active ingredient B at an application rate of n g/ha or in a concentration of n ppm and • E is the kill rate, expressed as % of the untreated control, when using active ingredients A and B at application rates of m and n g/ha or in a concentration of m and n ppm, • then
(§2) [formula] • If the actual kill rate is greater than the calculated kill rate (E), the action of the combination is superadditive, i.e. a synergistic effect is present.
(§3) Meloidogyne incognita Test
(§4) • Solvent: 125.0 parts by weight of acetone
(§5) To produce an appropriate active ingredient formulation, 1 part by weight of active ingredient is mixed with the stated amount of solvent and the concentrate is diluted to the desired concentration with water.
(§6) Vessels are filled with sand, active ingredient solution, an egg/larvae suspension of the southern root-knot nematode (Meloidogyne incognita) and lettuce seeds. The lettuce seeds germinate and the plants develop. The galls develop on the roots.
(§7) After the desired period of time, the nematicidal action is determined in % by the gall formation. 100% means that no galls were found; 0% means that the number of galls on the treated plants corresponds to the untreated control. The values ascertained are entered into Colby's formula.

Meloidogyne incognita [2] = assay: Example B: Meloidogyne incognita test (gall formation on lettuce roots in sand); format: in vivo; details: nematicidal action by gall formation, 100% = no galls
Description: as §1, §2, §3, §4, §5, §6, §7

| Structure (SMILES) | Effect in % after 14 days (Meloidogyne incognita [1]; 1.2 ppm) [%] | Effect in % after 14 days (Meloidogyne incognita [1]; 2.4 ppm) [%] | Effect in % after 14 days (Meloidogyne incognita [1]; 4.8 ppm) [%] | Effect in % after 14 days (Meloidogyne incognita [2]; 0.4 ppm) [%] | Effect in % after 14 days (Meloidogyne incognita [2]; 0.8 ppm) [%] | Effect in % after 14 days (Meloidogyne incognita [2]; 1.6 ppm) [%] | Effect in % after 14 days (Meloidogyne incognita [2]; 3.2 ppm) [%] | Effect in % after 14 days (Meloidogyne incognita [2]; 6.4 ppm) [%] | Effect in % after 14 days (Meloidogyne incognita [1]; 3 ppm) [%] | Effect in % after 14 days (Meloidogyne incognita [1]; 6 ppm) [%] | Effect in % after 14 days (Meloidogyne incognita [1]; 12 ppm) [%] |
| --- | --- | --- | --- | --- | --- | --- | --- | --- | --- | --- | --- |
| Cc1cc(Cl)cc(C)c1C1=C(O)C2(CCC3(CC2)OCCO3)NC1=O [Compound (I-2)] | 0 | 0 | 0 | 0 | 0 | 0 |  |  |  |  |  |
| c1ccc(-c2noc(-c3cccs3)n2)cc1 [Tioxazafen (B-2), Tioxazafen] |  |  |  |  |  | 0 | 0 | 70 |  |  |  |
| O=C(Nc1ccn(-c2c(F)cccc2F)n1)c1ccccc1C(F)(F)F [Compound (B-1)] |  |  |  |  |  |  |  |  | 0 | 0 | 70 |
